The values that follow come from patent publication US6743917B2, “Camptothecin analogs and methods of preparation thereof” (University of Pittsburgh, priority 1993, dated 2004).

In data set [1] the test system is HL-60 (human promyelocytic leukemic) cells. As to the kind of experiment: Cytotoxicity assay, HL-60 cells (XTT-microculture tetrazolium assay). The format is cell-based. Particulars: Homo sapiens; HL-60 cells, 72 hr incubation, XTT; read-out: Inhibition of cancer cell growth IC50, HL-60. As to the method: The camptothecin derivatives were evaluated for their cytotoxic effects on the growth of HL-60 (human promyelocytic leukemic), 833K (human teratocarcinoma) and DC-3F (hamster lung) cells in vitro. The cells were cultured in an initial density of […]. They were maintained in a 5% CO2 humidified atmosphere at 37° C. in RPMI-1640 media (GIBCO-BRL Grand Island, N.Y.) containing penicillin 100 μ/ml)/streptomycin (100 ^μg/ml) (GIBCO-BRL) and 10% heat inactivated fetal bovine serum. The assay was performed in duplicate in 96-well microplates. The cytotoxicity of the compounds toward HL-60 cells following 72 hr incubation was determined by XTT-microculture tetrazolium assay. Scudiero, D. A., et al., Cancer Res., 48, 4827 (1988), the disclosure of which is incorporated herein by reference. 2′, 3′-bis(-methoxy-4-nitro-5-sulfheny)-5-[(phenylamino)carbonyl]-2H-tetrazolium hydroxide (XTT) was prepared at 1 mg/ml in prewarmed (37° C.) medium without serum. Phenazine methosulfate (PMS) and fresh XTT were mixed together to obtain 0.075 mM PMS-XTT solution (25 ^μl of the stock 5 mM PMS was added per 5 ml of 1 mg/ml XTT). Fifty ^μl of this mixture was added to each well of the cell culture at the end of 72 hr incubation. After incubation at 37° C. for 4 hr., absorbance at 450 nm and 630 nm was measured with a microplate reader (EL340, Bio-Tek Instruments, Inc., Winooski, Vt.).
On the technique in general: Formazan colour is commonly taken as a measure of viable cells.

Data set [2] relates to 833K (human teratocarcinoma) cells. As to the kind of experiment: Cytotoxicity assay, 833K cells (sulforhodamine B protein content). Type of data set: cell-based. Particulars: Homo sapiens; 833K cells, sulforhodamine B; read-out: Inhibition of cancer cell growth IC50, 833K. How it is done:
(§1) Cultures were fixed with trichloroacetic acid and then stained for 30 minutes with 0.4% sulforhodamine B dissolved in 1% acetic acid. Unbound dye was removed by acetic acid washes, and the protein-bound dye was extracted with an unbuffered Tris base [tris(hydroxy-methyl)aminomethan] for determination of absorbance at 570 nm in a 96-well microplate reader. The experiments were carried out in duplicate using five to six concentrations of the drugs tested. Data were analyzed via computer software.

For data set [3], the system named is DC-3F (hamster lung) cells. As to the kind of experiment: Cytotoxicity assay, DC-3F cells (sulforhodamine B protein content). The format is cell-based. Particulars: Mesocricetus auratus, DC3F; DC-3F cells, sulforhodamine B; read-out: Inhibition of cancer cell growth IC50, DC-3F. How it is done:
as §1

Another data set relates to sarcoma-180. The data set is described as follows: Antitumor activity in vivo, sarcoma-180. Particulars: B6D2F1 mice, intraperitoneously twice daily for five days, several equivalent doses. As to the method: (§2) Antitumor activities of camptothecin derivatives were tested in B6D2F1 mice bearing sarcoma-180 or Lewis lung murine solid tumor. For S-180, 3×10^6 cells were innoculated subcutaneously on […]. Antitumor treatment started on day 1 intraperitoneously twice daily for five days. Tumor volumes on day 7 and day 14 were measured. Average tumor volumes were described as the ratio of treated versus untreated control (T/C). The control (treated with DMSO vehicle only) tumor volumes for day 7 and day 14 were 0.11 cm^3 and 0.61 cm^3, respectively. The T/C camptothecin is designated with “+++.” An increment or decrement of 10% as compared to the camptothecin T/C on day 14 at 2 mg/kg dosage is designated with increase or decrease of one “+” unit, respectively.

Data set [4] in a line: Kinetics of lactone ring opening in PBS buffer (HPLC). Type of data set: physicochemical. Particulars: for % Lactone at Equilibrium: PBS; for half-life: buffer, pH 7.4. How it is done: Kinetics of Lactone Ring Opening. […] Mi and Burke (1994), supra.
FIG. 21 summarizes the stability of DB172 in phosphate buffered saline (PBS) buffer, pH 7.4, at physiological temperature. Shown in the figure are plots of lactone fraction as a function of time for DB172 at different concentrations. Drug was added to solution from a concentrated DMSO stock solution such that the volumes of DMSO were very small (less than 0.5%) relative to the volume of water. […] At the more dilute drug concentrations the drug hydrolyzes as previously observed for other camptothecins containing the ^α-hydroxy-^δ-lactone moiety.

For data set [5] the following is noted: human.
The next data set can be described thus: in vitro. To be noted: human.
Data set [6] deals with MDA-MB-435 tumorigenic metastatic human breast cancer cells. As to the kind of experiment: cells. Type of data set: cell-based. To be noted: for IC50: Homo sapiens, MDA-MB-435, 72 h, read-out: IC50 (w/o HSA). How it is done:
Cells. […] The cells were exposed to a range of drug concentrations for 72 hr exposure periods and then viability was assessed using a sulphorrhodamine B (SRB) assay. SRB assays were performed using a standard assay.
Sulphorhodamine B (SRB) assay was used. This assay measures the total protein levels in the living cells. Proteins from dead cells are lysed and removed in the washing step before TCA fixation. However, it is possible that cells in the early stage of death still have their membrane integrity and therefore retain the protein contents inside. As a result, the optical density at 490 nm can sometimes be overestimated and the cytotoxicity underestimated. […] The SRB assay is now a well regarded assay and was recently approved by NCI as a standard assay for anticancer drug screening.

A short description of data set [7]: Self-association in aqueous solution (fluorescence intensity with time). Type of data set: physicochemical. Particulars: lactone drug forms added to solution, time=0. As to the method:
FIG. 22 summarizes the dependence of the fluorescence intensity of DB172 as a function of time and pH. In these experiments DB172 is added to solution as the lactone form. At low pH where the drug remains in the lactone form, the change in intensity with time is the lowest. At pH 10, where the conditions are such that the lactone more readily hydrolyzes and forms carboxylate, a significant change in fluorescence intensity is observed. It appears that a pH 10 nonfluorescent micellular aggregates composed of lactone disassemble and form open-ring carboxylate forms that tend to exist in solution as monomeric fluorescent species.
FIG. 23 explores the fluorescence intensity of DB172 as a function of concentration. Following the addition of low concentration of lactone drug to solution, the change in fluorescence signal is the greatest whereas at high drug concentration (10 ^μM) the fluorescence intensity changes are minimal. It is believed that a low concentration the micellular aggregates of DB172 displaying reduced fluorescence can disassemble and form fluorescent carboxylate species, but at higher drug concentration the equilibrium favors that the agent remains in the aggregated or reduced fluorescence state. […] Once again this decrease in fluorescence that occurs at reduced pH appear to be due to the formation of lactone aggregates of reduced fluorescence quantum yield.
FIGS. 21 through 24 are consistent with the unusual ability of DB172 lactone to self-associate and form micelles at micromolar drug concentrations. The micellular DB172 aggregates display a reduced fluorescence. If conditions allow for hydrolysis to occur such that carboxylate forms, there is an increase in the fluorescence intensity of the sample. FIG. 25 compares the relative change in the fluorescence emission of a sample following addition of lactone drug forms to solution. In these experiments the values for each drug are normalized to a value of 1 at time equals to zero, and the ability of the various analogs to disassociate in the event the drugs are aggregated at time=0 is monitored with time. […]

A short description of data set [8]: Kinetics of lactone ring opening in PBS containing HSA (HPLC).
The nature of data set [9]: Equilibrium binding to DMPC small unilamellar vesicles (fluorescence anisotropy titration). Particulars: for KDMPC overall association constant: PBS buffer at PH 7.4 and 37° C.
A short description of data set [10]: Equilibrium binding to DMPG small unilamellar vesicles (fluorescence anisotropy titration). To be noted: PBS buffer at PH 7.4 and 37° C. Background: Polarisation of emitted light reports the rotation of a fluorescent probe.
The test system of a further data set is Lewis lung carcinoma. The data set is described as follows: Antitumor activity in vivo, Lewis lung carcinoma. To be noted: B6D2F1 mice, intraperitoneously twice daily for five days. As to the method: as §2
For Lewis lung carcinoma, tumor cells (1×10^6) were inoculated subcutaneously on day 0 and treatment started on day 1, intraperitoneously twice daily for five days. The grading of effects was as described above.

Data set [11] concerns the target human serum albumin (HSA) (Homo sapiens, UniProt P02768). To be noted: PBS at pH 7.4; cited from earlier work.
For data set [12] the following is noted: whole human blood, earlier studies; cited from earlier work.
The conditions of data set [13]: cited from earlier work.
A short description of data set [14]: Kinetics of lactone ring opening in whole human blood (HPLC).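 For all read-outs here: hydrolytic opening of the camptothecin lactone ring followed over time by quantitative C18 reversed-phase HPLC in human whole blood at physiological temperature.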 To be noted: for % Lactone at Equilibrium: Whole Blood, physiological temperature.
For data set [15] the following is noted: earlier studies; cited from earlier work.
[16] abbreviates: human plasma, pH 7.4 and 37° C.
[17] abbreviates: HSA (PBS containing 30 mg/ml HSA).

Molecules are shown by their SMILES. Read-outs that look alike come from different tables or passages of the source.

human serum albumin (HSA), sequence (P02768 25-609): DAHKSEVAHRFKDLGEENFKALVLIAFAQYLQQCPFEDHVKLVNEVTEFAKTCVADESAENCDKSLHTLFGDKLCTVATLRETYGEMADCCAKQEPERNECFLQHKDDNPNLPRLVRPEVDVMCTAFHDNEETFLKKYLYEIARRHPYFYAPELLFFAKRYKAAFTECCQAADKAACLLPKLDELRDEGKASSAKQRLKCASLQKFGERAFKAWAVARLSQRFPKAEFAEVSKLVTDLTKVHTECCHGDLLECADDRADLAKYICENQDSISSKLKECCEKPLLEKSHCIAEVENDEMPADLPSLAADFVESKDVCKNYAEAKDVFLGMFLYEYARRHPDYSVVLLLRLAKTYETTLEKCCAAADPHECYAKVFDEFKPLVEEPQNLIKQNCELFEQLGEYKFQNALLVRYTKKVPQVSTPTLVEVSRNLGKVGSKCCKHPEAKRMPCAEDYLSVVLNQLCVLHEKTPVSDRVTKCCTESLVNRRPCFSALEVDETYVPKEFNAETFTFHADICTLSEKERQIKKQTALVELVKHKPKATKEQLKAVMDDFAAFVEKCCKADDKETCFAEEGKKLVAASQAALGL

Consider `CC[C@@]1(O)C(=O)OCc2c1cc1n(c2=O)Cc2c-1nc1ccccc1c2[Si](C)(C)C` [Example 1, (20S)-7-trimethylsilylcamptothecin], for which the results for the IC50 in data set [1], in data set [2] and in data set [3] were 3.8 nM, 5.6 nM and 4.2 nM, respectively. Also, the “activity against sarcoma 180 compared with camptothecin (tumor volume reduction)” value in the data set on sarcoma-180 is “better activity than camptothecin”. Further, the results for the “% Lactone at Equilibrium” value in data set [4] and in data set [5] were 11.1 +/− 0.1% and 23.7 +/− 0.0%, respectively. For the same compound, the half-life (commonly how long it takes for the measured level to halve) stood at 34.6 min in data set [4] and 54.6 min in the data set “in vitro” (blood).
As to `CC[C@@]1(O)C(=O)OCc2c1cc1n(c2=O)Cc2c-1nc1ccc(N)cc1c2CC[Si](C)(C)C` [DB-173], the “% Lactone at Equilibrium” value in data set [4] is 11.9 +/− 0.3%. Besides, the half-life in data set [4] was determined as 45.3 min; in the data set “in vitro” (whole blood), 69 min; in [8] (human, PBS containing 30 mg/ml HSA, pH 7.4) it was 49 min. In addition, the IC50 in data set [6] is 4 nM. Moreover, the “effect of 1 mg/ml HSA on the cytotoxic activity” value in data set [6] (MDA-MB-435 cells) is recorded as “no effect”. Also, the “self-association / aggregation state in solution” value in data set [7] was “much more likely to be found in solution as monomeric drug relative to DB172”. Also, the “KDMPC overall association constant” value in data set [9] stood at 5800 M⁻¹. Moreover, the “K value for DMPC, fold greater than camptothecin” value in [9] (relative to camptothecin) is listed as ~58 fold. Further, the “KDMPG overall association constant” value in data set [10] was 5800 M⁻¹.
In the case of `CCC1(O)C(=O)OCc2c1cc1n(c2=O)Cc2c-1nc1cc(F)ccc1c2[Si](C)(C)C` (stereo in doubt) [Example 7, (20S)-11-fluoro-7-trimethylsilylcamptothecin], the figures for the IC50 in data set [1], in [2] and in data set [3] were 0.75 nM, 0.92 nM and 2 nM, respectively. For the same compound, the “similar antitumor effect (tumor volume reduction) to camptothecin at x-fold lower doses” value with Lewis lung carcinoma amounted to 4 fold.
On to `CC[C@@]1(O)C(=O)OCc2c1cc1n(c2=O)Cc2cc3ccccc3nc2-1` [CPT, (20S)-Camptothecin, reference compound], for which the IC50 in data set [1] is 5 nM; in data set [2], 10 nM; in [3], 6 to 9 nM; in data set [6], 8 nM. Further, the “% Lactone at Equilibrium” value in data set [4] is recorded as 17 +/− 2.0%; in data set [14] (listed as Camptothecin), 5.3 +/− 0.6%; in data set [14] (listed as camptothecin), 5.3%; in data set [8] (setting [17]) it was <0.5%. Also, the “affinity of HSA for the carboxylate form, fold higher than for the lactone form” value in data set [11] is on record as 200 fold. The half-life in “in vitro” (whole blood) worked out at 21.6 min. The “t1/2 of lactone in whole blood” value in data set [12] is on record as 22 min. Further, the “% lactone at equilibrium in human plasma” value in [13] (setting [16]) is on record as 0.2%. Besides, the “t1/2 of lactone opening in human plasma” value in [13] (setting [16]) is recorded as 11 min. Further, the “lactone level at equilibrium in whole blood, fold greater than 9-aminocamptothecin” value in data set [14] (relative to 9-aminocamptothecin) was “approximately 10 fold”. The t1/2 in [8] (setting [17]) is 11.9 ± 0.3 min. Further, in data set [9], the “KDMPC overall association constant” value was 100 M⁻¹. Also, the “KDMPG overall association constant” value in [10] amounted to 100 M⁻¹.
Turning to `CC[C@@]1(O)C(=O)OCc2c1cc1n(c2=O)Cc2cc3c(N)cccc3nc2-1` [9-aminocamptothecin], in data set [15], the “fraction hydrolyzed in PBS solution containing HSA” value is listed as > 97%. Further, in data set [13] (plasma), the “fraction converted to carboxylate in plasma” value is reported as > 99.5%. In addition, the “% Lactone at Equilibrium” value in data set [14] is recorded as < 0.3%.
